Test results as given in patent US4503065A, “Antiinflammatory 4,5-diaryl 1-2-halo imidazoles” (E. I. Du Pont de Nemours and Company, priority 1982, dated 1985).
Read-outs that look alike come from different tables or passages of the source.

Tested on: adjuvant-induced arthritis in rats
Assay: Established adjuvant-induced arthritis in rats (paw volume of uninjected left hind paw)
Assay type: in vivo, Charles River Lewis male rats
Conditions: for ED50: read-out: Adjuvant Arthritis ED50 (effective dose at which a 50% decrease from control paw volume is observed); for Percent decrease from control paw volume: 7 days
[1] = at 27 mg/kg daily dose, rat, oral gavage
[2] = at 50 mg/kg daily dose, rat, oral gavage
[3] = rat, oral gavage, daily for 7 days, paw volume one day after last dose, ED50 by visual-fit regression

CC(=O)Oc1ccccc1C(=O)O [Aspirin, reference compound]
ED50 (Rattus norvegicus, po): 305 mg/kg

Br.CSc1ccc(-c2nc(Br)[nH]c2-c2ccc(SC)cc2)cc1 [Example 4, 2-Bromo-4,5-bis(4-methylthiophenyl)-1H-imidazole, Hydrobromide]
Percent decrease from control paw volume [1]: 26%

COc1ccc2c(c1)c(CC(=O)O)c(C)n2C(=O)c1ccc(Cl)cc1 [Indomethacin, reference compound]
ED50 (Rattus norvegicus, po): 0.3 mg/kg

Br.Fc1ccc(-c2nc(Br)[nH]c2-c2ccc(F)cc2)cc1 [Example 1, 2-Bromo-4,5-bis(4-fluorophenyl)-1H-imidazole, Hydrobromide]
Percent decrease from control paw volume [2]: 33%

Br.COc1ccc(-c2nc(Br)[nH]c2-c2ccc(OC)cc2)cc1 [Example 2, 2-Bromo-4,5-bis(4-methoxyphenyl)-1H-imidazole, Hydrobromide]
Percent decrease from control paw volume [1]: 46%

COc1ccc(-c2nc(Cl)n(C)c2-c2ccc(OC)cc2)cc1 [Example 6, 2-Chloro-4,5-bis(4-methoxyphenyl)-1-methyl-1H-imidazole]
Percent decrease from control paw volume [1]: 35%

CC(C)Cc1ccc(C(C)C(=O)O)cc1 (centres unmarked) [Ibuprofen, reference compound]
ED50 [3]: 100 mg/kg

CCCCC1C(=O)N(c2ccccc2)N(c2ccccc2)C1=O [Phenylbutazone, reference compound]
ED50 [3]: 10 mg/kg

COc1ccc(-c2nc(Cl)[nH]c2-c2ccc(OC)cc2)cc1.Cl [Example 5, 2-Chloro-4,5-bis(4-methoxyphenyl)-1H-imidazole, Hydrochloride]
Percent decrease from control paw volume [1]: 17%

Br.Clc1ccc(-c2nc(Br)[nH]c2-c2ccc(Cl)cc2)cc1 [Example 3, 2-Bromo-4,5-bis(4-chlorophenyl)-1H-imidazole, Hydrobromide]
ED50 [3]: 5.2 mg/kg

CCOC(C)n1c(Cl)nc(-c2ccc(OC)cc2)c1-c1ccc(OC)cc1 (centres unmarked) [Example 7, 2-Chloro-1-(1-ethoxyethyl)-4,5-bis(4-methoxyphenyl)-1H-imidazole]
Percent decrease from control paw volume [2]: 37%
